≈ marks a conversion by molar mass, not a printed value. Like-named read-outs stand apart in the source and are kept apart here.
Key:
[1] = system: Clostridium difficile ATCC 17857; experiment: In vitro inhibition of Clostridium difficile (Oxyrase broth microdilution MIC); type: cell-based; settings: Clostridioides difficile, ATCC17857; Clostridium difficile ATCC 17857, Oxyrase broth; read-out: MIC, column D, 3(S) compounds
[2] = system: Mycobacterium bovis (rBCG); type: in vivo; settings: 10 days
[3] = system: Mycobacterium bovis BCG (recombinant strain); experiment: microbe, parasite or virus in culture; type: cell-based; settings: Mycobacterium tuberculosis variant bovis BCG, BCG, 144 h; 6 days 37° C.; read-out: MIC, column A, 3(S) compounds
Helicobacter pylori = experiment: In vitro inhibition of Helicobacter pylori (broth microdilution MIC); settings: Helicobacter pylori
[4] = system: Mycobacterium tuberculosis H37Rv (sensitive strain); experiment: MIC as determined by the BACTEC method, sensitive strain; type: cell-based; settings: M. tuberculosis H37Rv (sensitive strain), read-out: MIC, column B, 3(S) compounds
Helicobacter felis = experiment: In vivo activity against Helicobacter felis in mice (urease test of stomach biopsy); set-up: species or system in female CD-1 mice; settings: 50 mg/kg three times daily oral gavage, CM-2, four days; vehicle and untreated 100
Description: Female CD-1 mice weighing 30 grams were infected by oral gavage with 10^8 -10^9 colony forming units of H. felis. This infection process was repeated two, and four days, thereafter. Colonization of the stomach was allowed to occur over a seven day period. Animals were segregated into groups of five, and were treated three times daily by oral gavage with 50 mg/kg of test drugs prepared in the CM-2 formulation vehicle (Example 52). Treatment continued for four days. One group of animals received an equal volume of formulation vehicle alone, to ensure that the vehicle had no effect on the Helicobacter infection. A separate untreated control group was also included.
All animals were then sacrificed, the stomachs were removed, opened, and the contents washed out. A five millimeter diameter biopsy was removed, and transferred to a urease test solution containing a pH-sensitive dye, which was then incubated at 37° C. incubator for 24 hours. A blue or purple coloration in this test solution signifies a positive reaction, indicating the continued presence of viable Helicobacter bacteria; a negative result is indicated by a yellow coloration. Viable Helicobacter bacteria produce a urease enzyme which converts urea, of which there is an abundant supply in the stomach (from saliva and gastric juices), into bicarbonate and ammonia, which are strong bases. This mechanism is considered to provide conditions more amenable to the survival of Helicobacter in the otherwise acidic conditions prevalent in the stomach.

[5] = system: Mycobacterium tuberculosis; settings: Ashtekar et al. 1993; cited from earlier work

Question: With `O=[N+]([O-])c1cn2c(n1)OC[C@@H](OCc1ccc(OCc3ccccc3)cc1)C2` [PA-647] as the molecule, how does the MIC [1] read?
Answer: Its MIC is 12.5 µg/mL (≈ 32.8 µM).

Question: And the “Average RLUs, M. bovis (rBCG) in spleens” value [2]?
Answer: The value was 19,916 RLUs.

Question: What about the MIC [3] of the same molecule?
Answer: The MIC was 0.03 µg/mL (≈ 0.0787 µM).

Question: And the MIC (Helicobacter pylori; 72 h, read-out: MIC against Helicobacter pylori, strain 17 (Table 5A))?
Answer: Its MIC is > 25 µg/mL.

Question: What about the MIC (Helicobacter pylori; 72 h, read-out: MIC against Helicobacter pylori, strain 19 (Table 5A)) of the same molecule?
Answer: The MIC was 0.2 µg/mL (≈ 0.524 µM).

Question: And the MIC (Helicobacter pylori; 72 h, read-out: MIC against Helicobacter pylori, strain 20 (Table 5A))?
Answer: Its MIC is 0.2 µg/mL (≈ 0.524 µM).

Question: And the MIC (Helicobacter pylori; 72 h, read-out: MIC against Helicobacter pylori, strain 40 (Table 5A))?
Answer: The MIC was 0.4 µg/mL (≈ 1.05 µM).

Question: And the MIC (Helicobacter pylori; 72 h, read-out: MIC against Helicobacter pylori, strain 43 (Table 5A))?
Answer: The MIC was 0.4 µg/mL (≈ 1.05 µM).

Question: What about the MIC (Helicobacter pylori; 72 h, read-out: MIC against Helicobacter pylori, strain 76 (Table 5A)) of the same molecule?
Answer: Its MIC is 3.12 µg/mL (≈ 8.18 µM).

Question: What about the MIC (Helicobacter pylori; ATCC43504, 72 h, read-out: MIC against Helicobacter pylori, strain ATCC 43504 (Table 5A)) of the same molecule?
Answer: Its MIC is > 25 µg/mL.

Question: What about the MIC [4] of the same molecule?
Answer: The MIC was 0.03 µg/mL (≈ 0.0787 µM).

Question: What about the “% Survival” value (Helicobacter felis) of the same molecule?
Answer: The value was 100%.

Question: For `CCC1Cn2cc([N+](=O)[O-])nc2O1` (centres unmarked) [CGI 17341, 2-ethyl-5-nitro-2,3-dihydro[2,1-b]imidazo-oxazole], which “activity against Mycobacterium tuberculosis” value [5] is on record?
Answer: The value was “exhibit activity against Mycobacterium tuberculosis”.

Question: For `CC(C)(C)c1ccc(CO[C@@H]2COc3nc([N+](=O)[O-])cn3C2)cc1` [PA-653], which MIC [1] is on record?
Answer: Its MIC is 3.12 µg/mL (≈ 9.42 µM).

Question: And the “Average RLUs, M. bovis (rBCG) in spleens” value [2]?
Answer: The value was 229,080 RLUs.

Question: What about the MIC [3] of the same molecule?
Answer: Its MIC is 0.06 µg/mL (≈ 0.181 µM).

Question: What about the MIC [4] of the same molecule?
Answer: The MIC was 0.03 µg/mL (≈ 0.0905 µM).

— patent US6087358A (priority 1997, dated 2000)
